# Data published in article PMC9758846, “Dinuclear and mononuclear metal(II) polypyridyl complexes against drug-sensitive and drug-resistant Plasmodium falciparum and their mode of action” (Malaria Journal, 2022).
# What was measured:
# [1] = molecular target: Pf3D7 20S proteasome caspase-like (C-L) site (Plasmodium falciparum, UniProt Q8I0U7); experiment: 20S proteasome inhibition assay using parasite lysate; format: biochemical; details: Suc-LLE-AMC, 30 min
# Procedure: (§1) To harvest P. falciparum parasites, intraerythrocytic Pf3D7 and Pf5202 were collected in trophozoite and early schizont stages. Red blood cells were lysed in 0.15% (w/v) saponin lysis buffer for 10 min at 37 °C. After lysis, the parasite pellet was washed once with PBS buffer by centrifuging at 1600 rpm for 5 min. Saponin lysis buffer was added once again to remove all the red blood cells for 10 min at 37 °C, followed by washing with PBS twice and immediately used or kept at − 80 °C. To prepare parasite lysates for proteasome purification, parasite pellet was resuspended with 100 µl of pre-cooled Pierce™ RIPA buffer. A mild protein extraction method was used to prepare parasite extracts. The resuspended parasites were passed 20 times through a needle with a diameter of 0.4 mm in a syringe on ice to lyse the parasite. After 15 min centrifugation at 13,000 xg at 4 °C, the supernatant was removed. Protein concentration was determined by the Bradford assay. The activities of 3 proteolytic sites were determined by fluorescence assay using fluorogenic peptide substrates (Suc-LLVY-AMC for chymotrypsin-like, Boc-LRR-AMC for trypsin-like and Suc-LLE-AMC for caspase-like) Proteasome activities were determined by monitoring the substrate hydrolysis for 30 min at 37 °C with 340 nm excitation and 465 nm emission wavelength. Activity of each proteolytic site were calculated, and the IC50 values were determined from the non-linear regression analysis. VR23 proteasome inhibitor was used as positive control.
# [2] = molecular target: Pf3D7 20S proteasome chymotrypsin-like (CT-L) site (Plasmodium falciparum, UniProt Q8IJT1); experiment: as above; format: biochemical; details: Suc-LLVY-AMC, 30 min
# Pf3D7 20S proteasome chymotrypsin-like (CT-L) site, sequence (Q8IJT1 entry or part of it): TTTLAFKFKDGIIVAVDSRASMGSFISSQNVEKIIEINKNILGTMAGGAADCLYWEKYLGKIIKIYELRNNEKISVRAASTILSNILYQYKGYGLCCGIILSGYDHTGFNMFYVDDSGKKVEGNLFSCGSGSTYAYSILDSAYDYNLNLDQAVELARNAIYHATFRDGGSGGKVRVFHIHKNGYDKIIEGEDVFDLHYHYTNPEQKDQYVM
# Procedure: as §1
# [3] = molecular target: Pf3D7 20S proteasome trypsin-like (T-L) site (Plasmodium falciparum, UniProt Q8I6T3); experiment: as above; format: biochemical; details: Boc-LRR-AMC, 30 min
# Pf3D7 20S proteasome trypsin-like (T-L) site, sequence (Q8I6T3 entry or part of it): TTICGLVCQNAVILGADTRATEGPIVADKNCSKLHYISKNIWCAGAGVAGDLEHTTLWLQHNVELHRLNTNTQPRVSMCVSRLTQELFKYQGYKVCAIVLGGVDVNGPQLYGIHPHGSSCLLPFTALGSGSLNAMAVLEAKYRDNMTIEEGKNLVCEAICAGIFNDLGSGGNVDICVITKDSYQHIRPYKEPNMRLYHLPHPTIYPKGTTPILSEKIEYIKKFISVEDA
# Procedure: as §1
# [4] = molecular target: Pf5202 20S proteasome caspase-like (C-L) site (Plasmodium falciparum, UniProt Q8I0U7); experiment: as above; format: biochemical; details: Suc-LLE-AMC, 30 min
# Pf5202 20S proteasome caspase-like (C-L) site, sequence (Q8I0U7 entry or part of it): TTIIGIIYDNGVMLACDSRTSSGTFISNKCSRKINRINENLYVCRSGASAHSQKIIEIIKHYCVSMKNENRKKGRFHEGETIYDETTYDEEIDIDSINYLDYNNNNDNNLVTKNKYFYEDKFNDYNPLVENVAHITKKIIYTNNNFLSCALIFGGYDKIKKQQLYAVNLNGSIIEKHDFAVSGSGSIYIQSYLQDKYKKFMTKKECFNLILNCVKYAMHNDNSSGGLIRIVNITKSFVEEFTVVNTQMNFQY
# Pf5202 20S proteasome caspase-like (C-L) site, sequence (Q8I6T3 entry or part of it, further chain): as the sequence (Q8I6T3 entry or part of it) above
# Procedure: as §1
# [5] = molecular target: Pf5202 20S proteasome chymotrypsin-like (CT-L) site (Plasmodium falciparum, UniProt Q8IJT1); experiment: as above; format: biochemical; details: Suc-LLVY-AMC, 30 min
# Pf5202 20S proteasome chymotrypsin-like (CT-L) site, sequence (Q8IJT1 entry or part of it): as the sequence (Q8IJT1 entry or part of it) above
# Procedure: as §1
# [6] = molecular target: Pf5202 20S proteasome trypsin-like (T-L) site (Plasmodium falciparum, UniProt Q8I6T3); experiment: as above; format: biochemical; details: for IC50: parasite lysate, Boc-LRR-AMC, 30 min; for Factor by which T-L site of Pf5202 is inhibited better than that of Pf3D7: ratio of T-L IC50 values
# Pf5202 20S proteasome trypsin-like (T-L) site, sequence (Q8I6T3 entry or part of it): as the sequence (Q8I6T3 entry or part of it) above
# Procedure: as §1
# [7] = Solution stability by molar conductivity and visible absorptivity; format: physicochemical; details: 24, 48 and 72 h; room temperature
# Procedure: Series of 10 mM stock solutions were prepared by dissolving the compounds in their respective solvents: phen and 4,4′-bipy in 95% ethanol; Cu(NO3)2·3H2O, Zn(NO3)2·6H2O, (1) and (2) in double distilled water; (3) and (4) in DMSO. All the stock solutions were further diluted with double distilled water to obtain 10 mL of 30 µM, 1 mM and 5 mM for their respective studies, viz. 30 µM for ultraviolet spectral studies, 1 mM for conductivity measurement and 5 mM for visible spectral studies. For the water-DMSO solutions of both complexes (3) and (4), the 30 µM, 1 mM and 5 mM solutions have […], 10% DMSO and 50% DMSO respectively. The absorbance at λmax and conductance were of the aqueous solutions were measured at 0, 24, 48 and 72 h. The molar absorptivity and molar conductivity of the metal(II) complex solutions and their precursors were then calculated.
# Pf3D7 20S proteasome caspase-like (C-L) site, sequence (Q8I6T3 entry or part of it): as above
# Pf3D7 20S proteasome caspase-like (C-L) site, sequence (Q8I0U7 entry or part of it): as the sequence (Q8I0U7 entry or part of it) above
molecule,measurement,setting,value
"O.O=[N+]([O-])[O-].O=[N+]([O-])[O-].[Cu+2].c1cnc2c(c1)ccc1cccnc12.c1cnc2c(c1)ccc1cccnc12 [Complex 1, [Cu(phen)2](NO3)2·H2O]",IC50,[1],> 25 µM
same,IC50,[2],> 25 µM
same,IC50,[3],2.39 ± 0.13 µM
same,IC50,[4],> 25 µM
same,IC50,[5],> 25 µM
same,IC50,[6],1.62 ± 0.3 µM
same,Factor by which T-L site of Pf5202 is inhibited better than that of Pf3D7,[6],about 1.5 ×
same,Stability of aqueous solution (molar conductivity; for (1) also visible molar absorptivity),[7],remains practically unchanged
"[Cu(phen)(NO3)(H2O)-4,4′-bipy-Cu(phen)(NO3)(H2O)](NO3)2 [Complex 3]",IC50,[1],> 25 µM
same,IC50,[2],> 25 µM
same,IC50,[3],2.64 ± 0.35 µM
same,IC50,[4],> 25 µM
same,IC50,[5],> 25 µM
same,IC50,[6],1.72 ± 0.13 µM
same,Factor by which T-L site of Pf5202 is inhibited better than that of Pf3D7,[6],about 1.5 ×
